From article PMC6268073, “Synthesis and Antiplasmodial Activity of Betulinic Acid and Ursolic Acid Analogues” (Molecules, 2012)
Entries after “also recorded” stand apart in the source; their conditions may differ. Where two headings read alike, the source gives them in different places.

Key:
[1] = tested on: P. falciparum chloroquine-sensitive 3D7 strain; experiment: Antiplasmodial assay, microdilution in vitro, flow cytometry; type: cell-based, Plasmodium falciparum; settings: for Antiplasmodial activity grade in words: P. falciparum 3D7; for IC50: Plasmodium falciparum
Experimental: The strains were maintained in human erythrocytes in a gas mixture containing 5% O2, 5% CO2 and 90% N2 [24]. The culture was synchronised by 10% sorbitol treatment. The antimalarial activity was measured using the microdilution technique in vitro. […] Samples were dissolved in water, dimethylsulfoxide (DMSO) or methanol and serially diluted with the culture medium. To evaluate parasitemia, Giemsa staining and flow cytometric analysis were used. The concentration of the drug required to inhibit parasite growth was determined by comparing the fluorescence incorporated into the treated and untreated cultures (control). The concentration causing 50% inhibition (IC50) was determined from the drug concentration response curve.

Plasmodium 3D7 strain = tested on: Plasmodium 3D7 strain; parameters: method as in PMID 14697777; settings: 3D7 strain ref 7; read-out: IC50 anti-Plasmodium 3D7 strain; cited from earlier work
P. berghei = tested on: P. berghei; parameters: method as in PMID 10190183; settings: 250 mg/kg/day ref 6; cited from earlier work
[2] = Cytotoxicity assay, dihydroethidium staining, flow cytometry; type: cell-based, human; settings: human
Experimental: (§1) Human embryonic kidney (HEK293T) cells were cultured in surface area 75 cm^2 (Greiner Bio-One, Frickenhausen, Germany) vented tissue culture flasks at 37 °C in a humidified atmosphere containing 5% CO2 in Dulbecco’s modified essential medium (Gibco/Life Technologies, Grand Island, NY, USA) supplemented with 10% (v/v) foetal bovine serum, 100 U/mL penicillin and 100 µg/mL streptomycin. After 24 h, 50 µl of each drug was added with 0.5% DMSO or methanol to a single well. The cells were incubated with the test drugs for an additional 24 and 48 h and then harvested with trypsin, gently pelleted by centrifugation and re-suspended in PBS. The cells were stained with dihydroethidium solution (10 mg/mL in phosphate buffered saline), gently vortexed and incubated for 40 min at 37 °C in the dark. Ten thousand gated events were acquired for each sample (FACSCalibur BD and CellQuest software was used for analysis).

HEK293T cells = experiment: as above; type: cell-based, human; settings: for Selectivity Index (SI) 48 h: HEK293T IC50 versus P. falciparum 3D7 IC50, 48 h; for IC50: Homo sapiens, HEK-293T; for IC50 / Cytotoxicity judgement in words: HEK293T; for Cytotoxicity judgement in words: tested concentrations 0.001-100 µM
Experimental: as §1

[3] = tested on: P. falciparum (3D7) isolated parasites; experiment: Cytosolic calcium in isolated parasites loaded with Fluo4/AM (spectrofluorimetry); type: cell-based, Plasmodium falciparum; settings: 2c 100 µM
Experimental: Erythrocytes (RBCs) infected by P. falciparum (3D7) at the trophozoite stage were lysed with 10 mg/mL saponin (in phosphate-buffered saline) in the presence of 20 µg/mL protease inhibitors (pepstatin A, leupeptin, antipain and chymostatin) and benzamidine (0.5 mmol/L). Erythrocyte membranes were then removed through centrifugation (8700 rpm for 10 min at 4 °C). The parasites were washed three times in buffer M (116 mM NaCl, 5.4 mM KCl, 0.8 mM MgSO4, 5.5 mM D-glucose, 50 mM MOPS, pH 7.3) with CaCl2 (2 mM). The parasites were then re-suspended in the same buffer with Fluo4-AM (5 μM) probenecid (1.8 mM), an inhibitor of organic anion transport (to prevent dye sequestration and release), […] protease inhibitors (pepstatin A, leupeptin, antipain and chymostatin) and benzamidine (0.5 mmol/L) for 50 min at 37 °C. The parasite suspension was then washed three times with buffer M. Spectrofluorimetric measurements were performed in a Shimadzu RF-5301 PC instrument at 37 °C with isolated P. falciparum (3D7) parasites (10^8 cells mL^−1) incubated with MOPS buffer in a 1 mL cuvette. Compound 2c (100 μM) and THG (10 μM) were added during time course experiments, and excitation/emission wavelengths were adjusted to 505/530 nm for Fluo4-AM. Methanol (0.05%) was used as a control. […]

[4] = tested on: P. falciparum chloroquine-sensitive Thai strain; parameters: method as in PMID 17967541; settings: chloroquine-sensitive Thai strain ref 10; cited from earlier work
[5] = chloroquine-sensitive 3D7 strain, 48 h incubation, n = 3, read-out: IC50 (µM) P. falciparum 3D7
[6] = chloroquine-sensitive 3D7 strain, 48 h incubation, values in nM, read-out: IC50 P. falciparum 3D7
[7] = 24 h, read-out: IC50 (µM) HEK293T 24 h
[8] = 48 h, read-out: IC50 (µM) HEK293T 48 h

In the case of `C=C(C)[C@@H]1CC[C@]2(C(=O)O)CC[C@]3(C)[C@H](CC[C@@H]4[C@@]5(C)CC[C@H](O)C(C)(C)[C@@H]5CC[C@]43C)[C@@H]12` [compound 1, Betulinic acid], the “Antiplasmodial activity grade in words” value [1] is given as “moderate activity”, the IC50 [1, 5] is given as 18 µM and the IC50 (Plasmodium 3D7 strain) is given as 13.9 µM. The “Efficacy in murine malarial model of P. berghei” value (P. berghei) was “ineffective”.
For `C=C(C)[C@@H]1CC[C@]2(C(=O)OC)CC[C@]3(C)[C@H](CC[C@@H]4[C@@]5(C)CC[C@H](O)C(C)(C)[C@@H]5CC[C@]43C)[C@@H]12` [methyl betulinate, reference compound], the IC50 (Plasmodium 3D7 strain) is given as 7 µM.
For `C[C@H]1[C@H](C)CC[C@]2(C(=O)O)CC[C@]3(C)C(=CC[C@@H]4[C@@]5(C)CC[C@H](O)C(C)(C)[C@@H]5CC[C@]43C)[C@H]12` [compound 2, Ursolic acid], the “Antiplasmodial activity grade in words” value [1] was “inactive” and the IC50 [1, 5] was 36 µM.
Compound `CCN(CC)CCCC(C)Nc1ccnc2cc(Cl)ccc12` (centres unmarked) [chloroquine, reference compound] has an IC50 ([1]; 3D7, 48 h, read-out: IC50 P. falciparum 3D7) of 0.029 µM.
In the case of `C=C(C)[C@@H]1CC[C@]2(C(=O)NCCCN3CCN(CCCN)CC3)CC[C@]3(C)C(CCC4[C@@]5(C)CC[C@H](OC(C)=O)C(C)(C)C5CC[C@]43C)C12` (some centres unmarked) [1c, N-{3-[4-(3-aminopropyl)piperazinyl]propyl}-3-acetylbetulinamide], the “Antiplasmodial activity grade in words” value [1] is reported as “excellent activity”, the IC50 [1, 5] is reported as 0.22 µM and the IC50 [1, 6] is reported as 0.175 to 0.22 µM. The IC50 [2] was 4 µM, the “Selectivity Index (SI) 48 h” value (HEK293T cells) was 18 and the IC50 (HEK293T cells; [7]) was 4 µM. It also gave an IC50 (HEK293T cells; [8]) of 4 µM and a melting point of 120 °C.
For `C=C(C)[C@@H]1CC[C@]2(C(=O)NCCCN3CCN(CCCNC(=O)OC(C)(C)C)CC3)CC[C@]3(C)C(CCC4[C@@]5(C)CC[C@H](OC(C)=O)C(C)(C)C5CC[C@]43C)C12` (some centres unmarked) [1b, N-{3-[4-(3-Aminopropyl)piperazinopropyl]terbutylcarbamate}-3-acetylbetulinamide], the “Antiplasmodial activity grade in words” value [1] was “good activity”, the IC50 [1, 5] was 5 µM and the IC50 [2] was 4 µM. The “Selectivity Index (SI) 48 h” value (HEK293T cells) was 0.8, the IC50 (HEK293T cells; [7]) was 4 µM and the IC50 (HEK293T cells; [8]) was 4 µM. For the same compound, the melting point was 129 °C.
Compound `CC(=O)O[C@H]1CC[C@@]2(C)C(CC[C@]3(C)C2CC=C2C4[C@@H](C)[C@H](C)CC[C@]4(C(=O)NCCCN4CCN(CCCNC(=O)OC(C)(C)C)CC4)CC[C@]23C)C1(C)C` (some centres unmarked) [2b] has an IC50 [1, 5] of 15 µM.
In the case of `C=C(C)[C@@H]1CC[C@]2(C(=O)O)CC[C@]3(C)[C@H](CC[C@@H]4[C@@]5(C)CC[C@H](OC(C)=O)C(C)(C)[C@@H]5CC[C@]43C)[C@@H]12` [1a, 3-O-Acetylbetulinic acid], the “Antiplasmodial activity grade in words” value [1] is reported as “good activity”, the IC50 [1, 5] is reported as 4 µM and the “Cytotoxicity judgement in words” value (HEK293T cells) is reported as “not toxic; also recorded: not cytotoxic at the tested concentrations”. The IC50 (HEK293T cells; [7]) was > 100 µM and the IC50 (HEK293T cells; [8]) was > 100 µM.
Work on `CC(=O)O[C@H]1CC[C@@]2(C)C(CC[C@]3(C)C2CC=C2C4[C@@H](C)[C@H](C)CC[C@]4(C(=O)O)CC[C@]23C)C1(C)C` (some centres unmarked) [2a] yielded an IC50 [1, 5] of 14 µM.
For `CC(=O)OC1CCC2(C)C(CCC3(C)C2CC=C2C4C(C)C(C)CCC4(C(=O)NCCCN4CCN(CCCN)CC4)CCC23C)C1(C)C` (centres unmarked) [2c], the “Antiplasmodial activity grade in words” value [1] was “excellent activity”, the IC50 [1, 5] was 0.175 µM and the IC50 [1, 6] was 0.175 to 0.22 µM. For the same compound, the IC50 ([2]; HEK293T cells, HEK293T, time not stated, read-out: IC50 cytotoxicity HEK293T) was 4 µM, the “Selectivity Index (SI) 48 h” value (HEK293T cells) was 23 and the “Cytotoxicity judgement in words” value (HEK293T cells) was “non-toxic”. For the same compound, the IC50 (HEK293T cells; [7]) was 4 µM, the IC50 (HEK293T cells; [8]) was 4 µM and the “Effect on parasite calcium homeostasis, in words” value ([3]; followed by THG 10 µM) was “can modulate parasite calcium homeostasis; also recorded: led to an increase in intracellular ion concentrations in P. falciparum”. The “Ca2+ concentration, Fluo4/AM fluorescence after addition of compound” value ([3]; isolated parasites 10^8 cells mL-1, mean ± SEM, n = 9, P = 0.0004 vs methanol 0.05%) was 104.9 a.u and the IC50 [4] was 0.167 µM.
